The text below walks through data of the kinase profiling compilation of Christmann-Franck et al. (2016).

SMILES strings stand for the structures. Several values for one entry are separate records, joined by “and”; a condition that tells them apart may be missing. Equal values may be shown once.

VRK1 (human), sequence (Q99986 whole entry, looked up): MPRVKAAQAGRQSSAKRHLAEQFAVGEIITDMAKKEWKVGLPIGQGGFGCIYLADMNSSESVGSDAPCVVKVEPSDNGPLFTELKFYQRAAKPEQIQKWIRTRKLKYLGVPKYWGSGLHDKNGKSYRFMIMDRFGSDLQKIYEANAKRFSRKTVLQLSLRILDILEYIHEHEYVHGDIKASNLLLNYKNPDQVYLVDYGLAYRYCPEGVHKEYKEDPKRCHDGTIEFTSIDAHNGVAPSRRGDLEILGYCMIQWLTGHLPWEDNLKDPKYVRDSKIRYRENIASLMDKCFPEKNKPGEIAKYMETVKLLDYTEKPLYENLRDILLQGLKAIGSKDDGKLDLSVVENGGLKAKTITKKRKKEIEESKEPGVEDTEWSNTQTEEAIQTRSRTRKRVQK
JAK3 JH1 JH2 (human), sequence (P52333 whole entry, looked up): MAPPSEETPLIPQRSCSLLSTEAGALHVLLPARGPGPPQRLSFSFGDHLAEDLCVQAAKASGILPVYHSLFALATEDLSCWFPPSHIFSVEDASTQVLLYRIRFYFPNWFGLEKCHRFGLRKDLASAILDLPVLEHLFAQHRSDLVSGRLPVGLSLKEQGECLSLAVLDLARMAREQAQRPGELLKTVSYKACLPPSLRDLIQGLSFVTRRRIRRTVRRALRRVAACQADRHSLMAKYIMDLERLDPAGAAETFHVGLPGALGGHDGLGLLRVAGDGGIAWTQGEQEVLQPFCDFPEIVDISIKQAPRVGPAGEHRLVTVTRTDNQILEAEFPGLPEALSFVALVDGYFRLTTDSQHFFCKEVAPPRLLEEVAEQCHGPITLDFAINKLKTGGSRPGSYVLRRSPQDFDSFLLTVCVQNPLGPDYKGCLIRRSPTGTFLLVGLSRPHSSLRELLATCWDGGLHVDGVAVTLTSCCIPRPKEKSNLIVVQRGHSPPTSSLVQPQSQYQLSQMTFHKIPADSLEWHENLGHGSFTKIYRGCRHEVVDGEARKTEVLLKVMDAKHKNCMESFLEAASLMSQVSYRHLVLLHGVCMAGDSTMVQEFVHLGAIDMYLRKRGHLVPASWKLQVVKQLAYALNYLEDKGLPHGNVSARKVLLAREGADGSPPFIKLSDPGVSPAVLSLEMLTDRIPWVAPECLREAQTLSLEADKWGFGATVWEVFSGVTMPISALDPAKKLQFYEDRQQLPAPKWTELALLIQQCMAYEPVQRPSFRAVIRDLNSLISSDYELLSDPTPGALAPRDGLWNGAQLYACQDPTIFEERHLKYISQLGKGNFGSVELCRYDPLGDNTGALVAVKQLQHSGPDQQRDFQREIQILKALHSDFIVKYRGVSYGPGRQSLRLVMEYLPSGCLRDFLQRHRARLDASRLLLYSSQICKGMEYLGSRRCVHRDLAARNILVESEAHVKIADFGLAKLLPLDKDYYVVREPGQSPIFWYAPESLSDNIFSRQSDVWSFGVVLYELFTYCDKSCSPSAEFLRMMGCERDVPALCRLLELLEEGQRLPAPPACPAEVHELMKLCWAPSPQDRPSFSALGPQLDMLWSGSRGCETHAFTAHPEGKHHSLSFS

The target of one assay is PRKG1 (human) (UniProt Q13976). As to the kind of experiment: radiometric filter-binding kinase assay, Kinase HotSpot. The note with it: compound 0.5 µM; ATP 10 µM.
What is called residual activity is the signal under treatment as a percentage of the control signal. For `CC#CC(=O)Nc1cc2c(Nc3ccc(F)c(Cl)c3)ncnc2cn1`, the residual activity is 91.7% and 97.6%.
The same measure, in the same setting: next, `CC(=O)c1ccc(N2CCOCC2)cc1O`: 100% and 84.1%; `Cc1ccc(S(=O)(=O)/C=C/C#N)cc1`: 95.8% and 96.7%.

A further assay deals with CAMK2G (human) (UniProt Q13555). The assay is described as above. To be noted: compound 0.5 µM; ATP 10 µM.
CAMK2G (human), sequence (Q13555 whole entry, looked up): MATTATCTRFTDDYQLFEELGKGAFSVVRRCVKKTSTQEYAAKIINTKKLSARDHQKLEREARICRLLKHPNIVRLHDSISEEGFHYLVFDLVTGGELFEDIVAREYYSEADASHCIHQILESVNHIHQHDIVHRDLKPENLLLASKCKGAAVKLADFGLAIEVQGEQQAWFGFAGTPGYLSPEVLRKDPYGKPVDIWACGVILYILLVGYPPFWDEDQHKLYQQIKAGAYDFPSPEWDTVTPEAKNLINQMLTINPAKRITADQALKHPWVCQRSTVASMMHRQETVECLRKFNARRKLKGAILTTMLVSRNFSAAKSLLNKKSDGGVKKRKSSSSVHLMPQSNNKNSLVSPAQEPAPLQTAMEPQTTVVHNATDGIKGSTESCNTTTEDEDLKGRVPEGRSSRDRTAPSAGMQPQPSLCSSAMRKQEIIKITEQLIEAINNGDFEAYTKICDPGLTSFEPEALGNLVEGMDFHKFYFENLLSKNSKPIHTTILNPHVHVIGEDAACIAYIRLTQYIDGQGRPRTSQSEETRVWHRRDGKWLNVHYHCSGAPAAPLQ
`CC#CC(=O)Nc1cc2c(Nc3ccc(F)c(Cl)c3)ncnc2cn1`: the residual activity stood at 97.7%.
As to `CC(=O)c1ccc(N2CCOCC2)cc1O`, the residual activity is 90.2%.
The same measure, in the same setting: next, `Cc1ccc(S(=O)(=O)/C=C/C#N)cc1`: 103%.

The next assay concerns the target VRK1 (human) (UniProt Q99986). The assay is described as above. The note with it: compound 0.5 µM; ATP 10 µM.
Turning to `CC#CC(=O)Nc1cc2c(Nc3ccc(F)c(Cl)c3)ncnc2cn1`, the residual activity stood at 87.8%.
Turning to `CC(=O)c1ccc(N2CCOCC2)cc1O`, the residual activity is 98.1%.
The same measure, in the same setting: as for `Cc1ccc(S(=O)(=O)/C=C/C#N)cc1`, the figure is 105%.

The next assay concerns the target MKNK2 (human) (UniProt Q9HBH9). The assay is described as above. To be noted: compound 0.5 µM; ATP 10 µM.
For the compound `CC#CC(=O)Nc1cc2c(Nc3ccc(F)c(Cl)c3)ncnc2cn1`, the residual activity stood at 66%.
On the same count and under the same terms, as for `CC(=O)c1ccc(N2CCOCC2)cc1O`, the figure is 90.7%; as for `Cc1ccc(S(=O)(=O)/C=C/C#N)cc1`, 119%.

The target in another assay is IKBKE (human) (UniProt Q14164). The assay is described as above. The note with it: compound 0.5 µM; ATP 10 µM.
With `CC#CC(=O)Nc1cc2c(Nc3ccc(F)c(Cl)c3)ncnc2cn1`, the residual activity is 98.9%.
On the same count and under the same terms, as for `CC(=O)c1ccc(N2CCOCC2)cc1O`, the figure is 105%.
For the compound `Cc1ccc(S(=O)(=O)/C=C/C#N)cc1`, the residual activity came out at 101%.

A further assay deals with TAOK1 (human) (UniProt Q7L7X3). The description is as above. To be noted: compound 0.5 µM; ATP 10 µM.
With `CC#CC(=O)Nc1cc2c(Nc3ccc(F)c(Cl)c3)ncnc2cn1`, the residual activity is 104%.
With `CC(=O)c1ccc(N2CCOCC2)cc1O`, the residual activity stood at 99.4%.
Consider `Cc1ccc(S(=O)(=O)/C=C/C#N)cc1`, for which the residual activity was 96.5%.

The target in another assay is TGFBR2 (human) (UniProt P37173). The assay is described as above. To be noted: compound 0.5 µM; ATP 10 µM.
As to `CC#CC(=O)Nc1cc2c(Nc3ccc(F)c(Cl)c3)ncnc2cn1`, the residual activity turned out to be 123%.
On the same count and under the same terms, next, `CC(=O)c1ccc(N2CCOCC2)cc1O`: 132%.
As for `Cc1ccc(S(=O)(=O)/C=C/C#N)cc1`, the residual activity worked out at 97.9%.

The target of a further assay is EPHB3 (human) (UniProt P54753). The assay is described as above. The note with it: compound 0.5 µM; ATP 10 µM.
EPHB3 (human), sequence (P54753 whole entry, looked up): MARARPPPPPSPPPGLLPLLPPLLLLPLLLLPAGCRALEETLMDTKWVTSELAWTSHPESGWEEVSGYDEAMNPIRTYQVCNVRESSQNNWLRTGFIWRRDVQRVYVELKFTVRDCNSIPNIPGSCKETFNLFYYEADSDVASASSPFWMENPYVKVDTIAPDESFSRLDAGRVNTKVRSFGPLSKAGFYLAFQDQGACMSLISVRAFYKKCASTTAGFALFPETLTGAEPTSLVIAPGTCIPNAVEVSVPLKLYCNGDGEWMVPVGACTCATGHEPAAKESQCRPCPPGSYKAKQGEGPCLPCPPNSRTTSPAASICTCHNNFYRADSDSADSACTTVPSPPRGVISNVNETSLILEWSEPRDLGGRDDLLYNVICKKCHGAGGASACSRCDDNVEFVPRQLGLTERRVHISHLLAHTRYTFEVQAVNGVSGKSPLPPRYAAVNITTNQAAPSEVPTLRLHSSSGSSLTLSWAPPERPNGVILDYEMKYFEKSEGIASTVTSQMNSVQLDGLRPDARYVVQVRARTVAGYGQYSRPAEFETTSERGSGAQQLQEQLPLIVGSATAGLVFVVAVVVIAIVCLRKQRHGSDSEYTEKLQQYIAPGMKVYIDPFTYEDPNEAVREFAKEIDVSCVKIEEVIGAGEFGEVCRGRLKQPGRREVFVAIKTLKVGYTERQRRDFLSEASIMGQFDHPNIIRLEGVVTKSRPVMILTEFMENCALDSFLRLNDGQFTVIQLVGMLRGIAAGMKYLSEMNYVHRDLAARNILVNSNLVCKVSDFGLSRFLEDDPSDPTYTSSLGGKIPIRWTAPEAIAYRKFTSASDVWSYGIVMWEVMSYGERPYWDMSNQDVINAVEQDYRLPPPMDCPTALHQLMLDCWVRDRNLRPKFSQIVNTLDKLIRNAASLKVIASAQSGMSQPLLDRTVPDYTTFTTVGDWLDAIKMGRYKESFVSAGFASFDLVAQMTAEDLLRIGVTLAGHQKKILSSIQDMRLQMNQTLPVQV
With `CC#CC(=O)Nc1cc2c(Nc3ccc(F)c(Cl)c3)ncnc2cn1`, the residual activity amounted to 85.4%.
Same read-out and setting: next, `CC(=O)c1ccc(N2CCOCC2)cc1O`: 92.3%.
Still for that read-out and setting: as for `Cc1ccc(S(=O)(=O)/C=C/C#N)cc1`, the figure is 104%.

The next assay addresses STK24 (human) (UniProt Q9Y6E0). The assay is described as above. The note with it: compound 0.5 µM; ATP 10 µM.
Turning to `CC#CC(=O)Nc1cc2c(Nc3ccc(F)c(Cl)c3)ncnc2cn1`, the residual activity is 107%.
The same measure, in the same setting: as for `CC(=O)c1ccc(N2CCOCC2)cc1O`, the figure is 99%.
On the same count and under the same terms, next, `Cc1ccc(S(=O)(=O)/C=C/C#N)cc1`: 89.3%.

A further assay has as its target TSSK2 (human) (UniProt Q96PF2). The description is as above. The note with it: compound 0.5 µM; ATP 10 µM.
As for `CC#CC(=O)Nc1cc2c(Nc3ccc(F)c(Cl)c3)ncnc2cn1`, the residual activity amounted to 100%.
Still for that read-out and setting: as for `CC(=O)c1ccc(N2CCOCC2)cc1O`, the figure is 102%.
On the same count and under the same terms, as for `Cc1ccc(S(=O)(=O)/C=C/C#N)cc1`, the figure is 103%.

The next assay has as its target DAPK2 (human) (UniProt Q9UIK4). The assay is described as above. The note with it: compound 0.5 µM; ATP 10 µM.
Regarding `CC#CC(=O)Nc1cc2c(Nc3ccc(F)c(Cl)c3)ncnc2cn1`, the residual activity was found to be 105%.
Take `CC(=O)c1ccc(N2CCOCC2)cc1O`: the residual activity came to 106%.
For `Cc1ccc(S(=O)(=O)/C=C/C#N)cc1`, the residual activity is 100%.

For another assay, the target named is PBK (human) (UniProt Q96KB5). The assay is described as above. The note with it: compound 0.5 µM; ATP 10 µM.
As to `CC#CC(=O)Nc1cc2c(Nc3ccc(F)c(Cl)c3)ncnc2cn1`, the residual activity was found to be 99.9%.
Same read-out and setting: as for `CC(=O)c1ccc(N2CCOCC2)cc1O`, the figure is 113%; as for `Cc1ccc(S(=O)(=O)/C=C/C#N)cc1`, 83.2%.

For another assay, the target named is SRPK2 (human) (UniProt P78362). The assay is described as above. To be noted: compound 0.5 µM; ATP 10 µM.
SRPK2 (human), sequence (P78362 whole entry, looked up): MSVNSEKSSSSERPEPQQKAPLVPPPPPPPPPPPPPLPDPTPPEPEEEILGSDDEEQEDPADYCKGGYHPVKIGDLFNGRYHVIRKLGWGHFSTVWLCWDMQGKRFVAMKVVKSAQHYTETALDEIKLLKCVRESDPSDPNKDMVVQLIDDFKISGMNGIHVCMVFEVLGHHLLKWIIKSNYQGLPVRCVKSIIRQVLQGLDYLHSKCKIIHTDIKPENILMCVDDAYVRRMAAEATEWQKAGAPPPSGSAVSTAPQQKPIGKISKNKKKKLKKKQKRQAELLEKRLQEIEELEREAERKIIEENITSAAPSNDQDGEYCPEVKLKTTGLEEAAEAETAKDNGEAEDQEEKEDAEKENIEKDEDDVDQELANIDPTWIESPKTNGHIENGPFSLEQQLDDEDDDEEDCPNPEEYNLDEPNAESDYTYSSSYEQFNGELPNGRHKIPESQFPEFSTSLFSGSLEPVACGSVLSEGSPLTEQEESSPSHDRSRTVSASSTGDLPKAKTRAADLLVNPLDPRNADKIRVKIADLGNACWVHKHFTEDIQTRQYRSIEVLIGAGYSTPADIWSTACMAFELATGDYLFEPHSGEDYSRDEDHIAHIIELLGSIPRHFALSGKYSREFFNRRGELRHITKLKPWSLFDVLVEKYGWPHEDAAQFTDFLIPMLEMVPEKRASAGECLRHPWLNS
With `CC#CC(=O)Nc1cc2c(Nc3ccc(F)c(Cl)c3)ncnc2cn1`, the residual activity turned out to be 69.2%.
As for `CC(=O)c1ccc(N2CCOCC2)cc1O`, the residual activity stood at 98.6%.
With `Cc1ccc(S(=O)(=O)/C=C/C#N)cc1`, the residual activity is 108%.

Another assay addresses DAPK3 (human) (UniProt O43293). The assay is described as above. The note with it: compound 0.5 µM; ATP 10 µM.
On to `CC#CC(=O)Nc1cc2c(Nc3ccc(F)c(Cl)c3)ncnc2cn1`, for which the residual activity amounted to 97.8%.
For the compound `CC(=O)c1ccc(N2CCOCC2)cc1O`, the residual activity came out at 98.1%.
For the compound `Cc1ccc(S(=O)(=O)/C=C/C#N)cc1`, the residual activity came out at 97.4%.

A further assay has as its target JAK3 JH1 JH2 (human) (UniProt P52333). The assay is described as above. The note with it: compound 0.5 µM; ATP 10 µM.
Regarding `CC#CC(=O)Nc1cc2c(Nc3ccc(F)c(Cl)c3)ncnc2cn1`, the residual activity was -0.181%.
The same measure, in the same setting: as for `CC(=O)c1ccc(N2CCOCC2)cc1O`, the figure is 104%; as for `Cc1ccc(S(=O)(=O)/C=C/C#N)cc1`, 101%.

The next assay has as its target TEC (human) (UniProt P42680). Described as above. To be noted: compound 0.5 µM; ATP 10 µM.
In the case of `CC#CC(=O)Nc1cc2c(Nc3ccc(F)c(Cl)c3)ncnc2cn1`, the residual activity was 52.1%.
Still for that read-out and setting: as for `CC(=O)c1ccc(N2CCOCC2)cc1O`, the figure is 139%.
For `Cc1ccc(S(=O)(=O)/C=C/C#N)cc1`, the residual activity came to 144%.

In another assay the target is CDK4 CCND1 (human) (UniProt P24385+P11802). The assay is described as above. The note with it: compound 0.5 µM; ATP 10 µM.
As to `CC#CC(=O)Nc1cc2c(Nc3ccc(F)c(Cl)c3)ncnc2cn1`, the residual activity worked out at 98.6%.
Turning to `CC(=O)c1ccc(N2CCOCC2)cc1O`, the residual activity amounted to 94.4%.
Consider `Cc1ccc(S(=O)(=O)/C=C/C#N)cc1`, for which the residual activity stood at 103%.

A further assay concerns the target SYK (human) (UniProt P43405). The assay is described as above. To be noted: compound 0.5 µM; ATP 10 µM.
Take `CC#CC(=O)Nc1cc2c(Nc3ccc(F)c(Cl)c3)ncnc2cn1`: the residual activity was determined as 95.4%.
Still for that read-out and setting: as for `CC(=O)c1ccc(N2CCOCC2)cc1O`, the figure is 92.6%.
Same read-out and setting: next, `Cc1ccc(S(=O)(=O)/C=C/C#N)cc1`: 105%.

The target of another assay is HIPK1 (human) (UniProt Q86Z02). The assay is described as above. The note with it: compound 0.5 µM; ATP 10 µM.
HIPK1 (human), sequence (Q86Z02 whole entry, looked up): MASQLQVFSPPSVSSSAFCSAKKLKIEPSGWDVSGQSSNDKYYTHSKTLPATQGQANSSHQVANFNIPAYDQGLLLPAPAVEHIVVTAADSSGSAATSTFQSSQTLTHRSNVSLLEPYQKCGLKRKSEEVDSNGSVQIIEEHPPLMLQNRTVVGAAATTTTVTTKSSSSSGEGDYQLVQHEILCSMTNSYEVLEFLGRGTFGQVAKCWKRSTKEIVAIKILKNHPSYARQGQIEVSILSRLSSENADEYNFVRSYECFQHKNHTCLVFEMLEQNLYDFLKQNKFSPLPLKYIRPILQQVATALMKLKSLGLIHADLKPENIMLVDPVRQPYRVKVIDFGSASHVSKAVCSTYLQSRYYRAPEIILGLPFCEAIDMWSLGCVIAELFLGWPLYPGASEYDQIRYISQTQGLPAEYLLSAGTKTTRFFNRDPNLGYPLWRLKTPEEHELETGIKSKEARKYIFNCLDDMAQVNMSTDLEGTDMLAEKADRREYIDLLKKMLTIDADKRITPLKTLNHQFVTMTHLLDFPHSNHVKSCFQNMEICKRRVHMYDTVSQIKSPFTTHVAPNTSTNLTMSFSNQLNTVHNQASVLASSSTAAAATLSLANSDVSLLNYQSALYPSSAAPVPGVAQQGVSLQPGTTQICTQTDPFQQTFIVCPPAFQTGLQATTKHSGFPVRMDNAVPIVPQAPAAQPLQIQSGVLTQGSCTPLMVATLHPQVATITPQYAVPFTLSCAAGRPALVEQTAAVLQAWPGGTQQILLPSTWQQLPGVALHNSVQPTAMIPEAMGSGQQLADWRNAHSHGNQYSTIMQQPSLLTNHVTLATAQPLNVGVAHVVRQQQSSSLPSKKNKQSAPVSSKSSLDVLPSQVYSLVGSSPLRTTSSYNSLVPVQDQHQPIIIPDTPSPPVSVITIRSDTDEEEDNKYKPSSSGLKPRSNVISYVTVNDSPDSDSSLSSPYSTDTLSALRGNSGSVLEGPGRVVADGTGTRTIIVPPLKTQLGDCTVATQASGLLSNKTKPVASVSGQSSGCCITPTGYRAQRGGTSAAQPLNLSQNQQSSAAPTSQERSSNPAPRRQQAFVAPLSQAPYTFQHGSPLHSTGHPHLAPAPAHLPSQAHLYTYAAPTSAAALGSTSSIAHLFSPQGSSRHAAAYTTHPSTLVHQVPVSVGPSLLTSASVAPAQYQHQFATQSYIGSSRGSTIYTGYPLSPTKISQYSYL
`CC#CC(=O)Nc1cc2c(Nc3ccc(F)c(Cl)c3)ncnc2cn1`: the residual activity was 108%.
As for `CC(=O)c1ccc(N2CCOCC2)cc1O`, the residual activity came to 93.9%.
The same measure, in the same setting: as for `Cc1ccc(S(=O)(=O)/C=C/C#N)cc1`, the figure is 105%.

A further assay concerns the target CDK2 CCNE1 (human) (UniProt P24941+P24864). The description is as above. The note with it: compound 0.5 µM; ATP 10 µM.
Regarding `CC#CC(=O)Nc1cc2c(Nc3ccc(F)c(Cl)c3)ncnc2cn1`, the residual activity stood at 98.1%.
On to `CC(=O)c1ccc(N2CCOCC2)cc1O`, for which the residual activity was 94.8%.
Regarding `Cc1ccc(S(=O)(=O)/C=C/C#N)cc1`, the residual activity was 89.2%.

In the next assay the target is CDK6 CCND3 (human) (UniProt P30281+Q00534). The assay is described as above. To be noted: compound 0.5 µM; ATP 10 µM.
Turning to `CC#CC(=O)Nc1cc2c(Nc3ccc(F)c(Cl)c3)ncnc2cn1`, the residual activity is 103%.
